pIC50: −log10 of the molar value.
Columns and labels:
[1] = biological target: T1, TEC (Homo sapiens, UniProt P42680); test: Kinase activity assay, TEC
T1 sequence (P42680 1-631): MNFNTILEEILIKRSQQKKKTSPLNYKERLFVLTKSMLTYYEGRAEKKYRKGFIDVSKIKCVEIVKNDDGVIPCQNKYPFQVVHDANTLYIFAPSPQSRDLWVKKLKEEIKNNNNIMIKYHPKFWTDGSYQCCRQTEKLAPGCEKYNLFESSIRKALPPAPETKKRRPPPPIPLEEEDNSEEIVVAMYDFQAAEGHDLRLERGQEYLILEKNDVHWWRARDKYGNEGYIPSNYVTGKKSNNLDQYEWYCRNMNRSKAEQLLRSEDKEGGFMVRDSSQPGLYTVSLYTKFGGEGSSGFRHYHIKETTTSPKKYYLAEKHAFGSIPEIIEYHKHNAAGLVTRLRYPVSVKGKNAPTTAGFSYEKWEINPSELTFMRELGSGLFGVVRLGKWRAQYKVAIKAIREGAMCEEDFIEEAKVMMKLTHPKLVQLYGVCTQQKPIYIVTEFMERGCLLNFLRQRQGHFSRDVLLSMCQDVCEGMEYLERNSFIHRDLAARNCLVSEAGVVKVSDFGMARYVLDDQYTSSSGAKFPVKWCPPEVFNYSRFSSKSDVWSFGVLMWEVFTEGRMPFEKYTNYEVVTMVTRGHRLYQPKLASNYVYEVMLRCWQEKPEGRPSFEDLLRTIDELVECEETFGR

[2] = biological target: Src (Homo sapiens, UniProt P12931); test: Kinase activity assay, Src
Chain of Src (P12931 whole entry): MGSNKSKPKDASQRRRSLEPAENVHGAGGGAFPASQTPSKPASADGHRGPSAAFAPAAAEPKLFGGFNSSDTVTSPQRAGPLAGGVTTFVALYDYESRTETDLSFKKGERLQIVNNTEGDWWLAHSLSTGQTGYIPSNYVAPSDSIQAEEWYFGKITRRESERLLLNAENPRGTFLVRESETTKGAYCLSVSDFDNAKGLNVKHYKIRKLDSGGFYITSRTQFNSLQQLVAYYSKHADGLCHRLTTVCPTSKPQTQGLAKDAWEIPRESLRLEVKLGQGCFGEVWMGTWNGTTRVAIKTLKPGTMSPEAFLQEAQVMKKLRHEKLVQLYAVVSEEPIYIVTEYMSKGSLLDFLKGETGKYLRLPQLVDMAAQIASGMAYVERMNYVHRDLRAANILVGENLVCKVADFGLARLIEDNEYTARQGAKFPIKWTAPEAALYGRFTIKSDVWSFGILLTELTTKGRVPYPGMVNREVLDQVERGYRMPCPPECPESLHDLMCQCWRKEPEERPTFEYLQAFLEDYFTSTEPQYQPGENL

[3] = biological target: B-Raf V600E (Homo sapiens, UniProt P15056, V600E); test: Kinase activity assay, B-Raf V600E; format: biochemical; settings: read-out: activity toward kinase B-Raf V600E, IC50
Chain of B-Raf V600E (P15056 whole entry V600E): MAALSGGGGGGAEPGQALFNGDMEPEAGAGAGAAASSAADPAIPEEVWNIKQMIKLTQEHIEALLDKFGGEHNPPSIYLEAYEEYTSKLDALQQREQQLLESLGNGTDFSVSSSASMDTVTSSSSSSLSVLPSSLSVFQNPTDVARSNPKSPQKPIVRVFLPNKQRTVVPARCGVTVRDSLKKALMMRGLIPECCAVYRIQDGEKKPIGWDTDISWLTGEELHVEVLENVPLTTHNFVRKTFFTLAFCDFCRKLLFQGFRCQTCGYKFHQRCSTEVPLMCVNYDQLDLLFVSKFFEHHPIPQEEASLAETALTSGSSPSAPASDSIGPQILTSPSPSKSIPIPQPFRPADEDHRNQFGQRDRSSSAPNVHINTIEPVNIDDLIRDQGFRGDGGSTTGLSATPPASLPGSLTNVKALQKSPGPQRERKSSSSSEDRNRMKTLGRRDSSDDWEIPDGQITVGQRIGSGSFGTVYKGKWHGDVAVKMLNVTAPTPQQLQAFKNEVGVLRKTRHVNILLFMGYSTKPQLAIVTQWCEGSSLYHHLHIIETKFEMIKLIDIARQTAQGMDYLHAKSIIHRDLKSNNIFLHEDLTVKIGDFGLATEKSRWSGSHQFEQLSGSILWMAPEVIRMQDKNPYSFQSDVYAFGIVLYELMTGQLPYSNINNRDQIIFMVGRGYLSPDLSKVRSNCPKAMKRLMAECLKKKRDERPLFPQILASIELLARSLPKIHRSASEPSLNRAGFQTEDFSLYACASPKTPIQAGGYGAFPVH

[4] = biological target: C-Raf (Homo sapiens, UniProt P04049); test: Kinase activity assay, C-Raf
Chain of C-Raf (P04049 whole entry): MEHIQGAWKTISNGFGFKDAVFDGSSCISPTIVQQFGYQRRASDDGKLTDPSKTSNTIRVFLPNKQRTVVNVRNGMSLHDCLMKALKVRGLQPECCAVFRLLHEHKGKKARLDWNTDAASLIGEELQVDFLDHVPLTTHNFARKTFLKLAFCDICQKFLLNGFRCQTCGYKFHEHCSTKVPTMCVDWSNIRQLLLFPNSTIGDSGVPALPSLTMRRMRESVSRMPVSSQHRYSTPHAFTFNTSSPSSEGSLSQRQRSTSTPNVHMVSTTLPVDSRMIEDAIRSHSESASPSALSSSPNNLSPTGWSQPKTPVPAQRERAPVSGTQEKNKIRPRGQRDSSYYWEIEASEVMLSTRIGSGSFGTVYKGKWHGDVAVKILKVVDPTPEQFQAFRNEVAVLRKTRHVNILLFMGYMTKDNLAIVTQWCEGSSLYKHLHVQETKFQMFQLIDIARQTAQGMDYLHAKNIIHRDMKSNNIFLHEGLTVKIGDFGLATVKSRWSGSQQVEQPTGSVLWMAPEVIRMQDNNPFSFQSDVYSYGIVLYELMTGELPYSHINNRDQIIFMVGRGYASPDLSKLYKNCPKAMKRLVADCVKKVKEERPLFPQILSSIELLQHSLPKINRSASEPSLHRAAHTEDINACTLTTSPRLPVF

[5] = biological target: Kdr (Homo sapiens, UniProt P35968); test: Kinase activity assay, Kdr
Chain of Kdr (P35968 20-1356): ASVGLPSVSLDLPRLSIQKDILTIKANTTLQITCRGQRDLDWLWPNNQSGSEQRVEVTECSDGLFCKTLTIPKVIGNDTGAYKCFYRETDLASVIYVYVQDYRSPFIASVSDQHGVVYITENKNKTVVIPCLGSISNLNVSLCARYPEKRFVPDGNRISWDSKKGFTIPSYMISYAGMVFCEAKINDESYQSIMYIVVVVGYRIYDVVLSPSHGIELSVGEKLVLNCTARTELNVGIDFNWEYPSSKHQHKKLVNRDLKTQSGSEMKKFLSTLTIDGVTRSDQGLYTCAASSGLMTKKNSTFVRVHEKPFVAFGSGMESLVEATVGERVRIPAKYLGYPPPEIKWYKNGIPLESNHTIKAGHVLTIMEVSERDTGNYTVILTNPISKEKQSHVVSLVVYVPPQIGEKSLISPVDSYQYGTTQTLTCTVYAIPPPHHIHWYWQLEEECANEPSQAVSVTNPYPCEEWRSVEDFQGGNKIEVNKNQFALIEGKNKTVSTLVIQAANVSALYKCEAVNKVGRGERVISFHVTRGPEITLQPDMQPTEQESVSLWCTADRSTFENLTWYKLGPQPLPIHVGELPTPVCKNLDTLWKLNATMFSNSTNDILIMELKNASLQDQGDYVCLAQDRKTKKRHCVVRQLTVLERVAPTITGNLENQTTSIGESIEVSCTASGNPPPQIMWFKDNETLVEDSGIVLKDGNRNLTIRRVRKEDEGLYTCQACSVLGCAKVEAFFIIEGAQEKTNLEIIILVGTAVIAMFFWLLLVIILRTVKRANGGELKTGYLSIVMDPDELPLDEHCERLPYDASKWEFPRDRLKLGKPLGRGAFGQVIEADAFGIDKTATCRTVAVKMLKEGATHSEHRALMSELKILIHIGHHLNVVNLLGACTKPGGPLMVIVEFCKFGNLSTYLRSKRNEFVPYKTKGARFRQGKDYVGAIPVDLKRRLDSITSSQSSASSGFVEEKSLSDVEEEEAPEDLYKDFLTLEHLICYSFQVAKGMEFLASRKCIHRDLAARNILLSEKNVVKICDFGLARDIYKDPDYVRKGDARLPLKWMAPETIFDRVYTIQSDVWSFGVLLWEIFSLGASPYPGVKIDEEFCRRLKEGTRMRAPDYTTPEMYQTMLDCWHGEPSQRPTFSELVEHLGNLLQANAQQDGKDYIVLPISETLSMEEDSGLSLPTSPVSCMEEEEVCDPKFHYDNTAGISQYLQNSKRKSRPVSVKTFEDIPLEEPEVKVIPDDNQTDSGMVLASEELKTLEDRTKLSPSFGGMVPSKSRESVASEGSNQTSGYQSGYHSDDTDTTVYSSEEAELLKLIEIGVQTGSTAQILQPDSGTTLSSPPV

[6] = biological target: Kit (Homo sapiens, UniProt P10721); test: Kinase activity assay, Kit
Chain of Kit (P10721 26-976): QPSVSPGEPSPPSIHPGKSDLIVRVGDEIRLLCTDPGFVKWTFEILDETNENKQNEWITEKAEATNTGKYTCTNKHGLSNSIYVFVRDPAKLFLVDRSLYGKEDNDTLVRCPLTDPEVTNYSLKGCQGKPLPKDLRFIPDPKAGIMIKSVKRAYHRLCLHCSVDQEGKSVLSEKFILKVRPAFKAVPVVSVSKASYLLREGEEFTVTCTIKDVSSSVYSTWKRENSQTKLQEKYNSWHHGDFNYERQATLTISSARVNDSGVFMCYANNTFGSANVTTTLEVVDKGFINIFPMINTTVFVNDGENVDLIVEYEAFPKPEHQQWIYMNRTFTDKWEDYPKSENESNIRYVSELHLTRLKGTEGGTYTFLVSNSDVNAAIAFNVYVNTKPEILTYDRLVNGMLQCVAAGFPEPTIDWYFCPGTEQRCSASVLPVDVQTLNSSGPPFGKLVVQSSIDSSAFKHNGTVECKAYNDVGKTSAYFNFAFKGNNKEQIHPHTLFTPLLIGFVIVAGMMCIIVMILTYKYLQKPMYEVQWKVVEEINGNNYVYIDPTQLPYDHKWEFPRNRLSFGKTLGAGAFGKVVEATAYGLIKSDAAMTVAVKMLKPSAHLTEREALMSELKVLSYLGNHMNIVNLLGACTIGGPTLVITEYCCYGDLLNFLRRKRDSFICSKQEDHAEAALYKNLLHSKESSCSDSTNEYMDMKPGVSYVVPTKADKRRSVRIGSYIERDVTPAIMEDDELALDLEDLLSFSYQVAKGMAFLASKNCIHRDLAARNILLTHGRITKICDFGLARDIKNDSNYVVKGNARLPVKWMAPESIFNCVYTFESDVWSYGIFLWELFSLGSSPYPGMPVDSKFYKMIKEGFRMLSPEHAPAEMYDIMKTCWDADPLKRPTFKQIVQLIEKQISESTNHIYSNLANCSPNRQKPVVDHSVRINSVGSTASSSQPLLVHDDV

[7] = biological target: T2, A-Raf (Homo sapiens, UniProt P10398); test: Kinase activity assay, A-Raf
T2 sequence (P10398 1-606): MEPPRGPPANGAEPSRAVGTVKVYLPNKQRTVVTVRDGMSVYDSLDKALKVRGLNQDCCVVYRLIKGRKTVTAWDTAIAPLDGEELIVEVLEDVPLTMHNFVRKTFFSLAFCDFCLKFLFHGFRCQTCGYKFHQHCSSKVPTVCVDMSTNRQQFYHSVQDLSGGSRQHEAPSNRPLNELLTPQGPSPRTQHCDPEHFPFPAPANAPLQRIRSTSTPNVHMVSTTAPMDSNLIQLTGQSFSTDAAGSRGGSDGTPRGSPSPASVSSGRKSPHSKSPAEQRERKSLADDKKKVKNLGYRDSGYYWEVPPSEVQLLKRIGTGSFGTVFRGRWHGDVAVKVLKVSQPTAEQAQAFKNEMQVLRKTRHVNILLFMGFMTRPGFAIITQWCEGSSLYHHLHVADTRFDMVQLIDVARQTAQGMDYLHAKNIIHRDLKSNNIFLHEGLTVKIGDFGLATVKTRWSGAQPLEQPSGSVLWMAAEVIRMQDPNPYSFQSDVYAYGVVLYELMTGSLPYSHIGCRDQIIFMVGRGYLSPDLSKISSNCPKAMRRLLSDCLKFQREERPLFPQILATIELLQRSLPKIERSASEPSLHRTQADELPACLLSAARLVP

[8] = biological target: B-Raf (Homo sapiens, UniProt P15056); test: Kinase activity assay, B-Raf; format: biochemical; settings: read-out: activity toward kinase B-Raf, IC50
Chain of B-Raf (P15056 whole entry): as the sequence (P15056 whole entry V600E) above, with E600V counted along it

[9] = biological target: MAP4K4 (Homo sapiens, UniProt O95819); test: Kinase activity assay, MAP4K4
[10] = biological target: Btk (Homo sapiens, UniProt Q06187); test: Kinase activity assay, Btk
Chain of Btk (Q06187 whole entry): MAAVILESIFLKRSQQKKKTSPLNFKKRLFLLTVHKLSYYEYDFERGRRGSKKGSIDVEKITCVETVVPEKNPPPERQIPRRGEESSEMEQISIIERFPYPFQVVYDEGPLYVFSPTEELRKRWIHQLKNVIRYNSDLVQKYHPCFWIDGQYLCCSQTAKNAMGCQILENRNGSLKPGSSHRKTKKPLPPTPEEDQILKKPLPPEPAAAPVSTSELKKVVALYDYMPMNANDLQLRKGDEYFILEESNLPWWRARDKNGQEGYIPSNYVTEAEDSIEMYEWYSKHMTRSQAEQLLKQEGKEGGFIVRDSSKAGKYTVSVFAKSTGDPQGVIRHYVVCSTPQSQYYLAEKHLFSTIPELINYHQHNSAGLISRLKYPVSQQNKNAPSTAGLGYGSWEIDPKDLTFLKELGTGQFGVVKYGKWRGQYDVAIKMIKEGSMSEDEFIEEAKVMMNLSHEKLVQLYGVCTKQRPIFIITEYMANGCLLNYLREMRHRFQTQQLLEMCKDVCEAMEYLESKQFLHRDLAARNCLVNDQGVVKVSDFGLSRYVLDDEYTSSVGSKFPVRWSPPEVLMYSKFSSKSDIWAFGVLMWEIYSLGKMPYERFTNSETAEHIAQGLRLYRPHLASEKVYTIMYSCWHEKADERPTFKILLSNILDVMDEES

[11] = biological target: Fms (Homo sapiens, UniProt P07333); test: Kinase activity assay, Fms

Measured: pIC50

N#Cc1ccnc2[nH]cc(C(=O)c3c(F)ccc(NS(=O)(=O)c4ccccc4F)c3F)c12 [P-2020, N-[3-(4-Cyano-1H-pyrrolo[2,3-b]pyridine-3-carbonyl)-2,4-difluoro-phenyl]-2-fluoro-benzenesulfonamide]
not listed: [9] | [10] | [11]
≥ 5.00: all other assays above

O=C(c1c(F)ccc(NS(=O)(=O)c2ccccn2)c1F)c1c[nH]c2ncc(Cl)cc12 [P-2067, Pyridine-2-sulfonic acid [3-(5-chloro-1H-pyrrolo[2,3-b]pyridine-3-carbonyl)-2,4-difluoro-phenyl]-amide]
not listed: [6] | [10] | [11]
≥ 5.00: all other assays above

N#Cc1cnc2[nH]cc(C(=O)c3cccc(NS(=O)(=O)c4cccnc4)c3F)c2c1 [P-2086, Pyridine-3-sulfonic acid [3-(5-cyano-1H-pyrrolo[2,3-b]pyridine-3-carbonyl)-2-fluoro-phenyl]-amide]
≥ 5.00: [10]

O=C(c1cc(NS(=O)(=O)c2ccc(F)cc2)ccc1F)c1c[nH]c2ncccc12 [P-2114, 4-Fluoro-N-[4-fluoro-3-(1H-pyrrolo[2,3-b]pyridine-3-carbonyl)-phenyl]-benzenesulfonamide]
≥ 5.00: [10] | [5] | [6] | [11]

CCCS(=O)(=O)Nc1ccc(F)c(C(=O)c2c[nH]c3ncc(-c4cnn(CC(C)C)c4)cc23)c1F [P-2157, Propane-1-sulfonic acid {2,4-difluoro-3-[5-(1-isobutyl-1H-pyrazol-4-yl)-1H-pyrrolo[2,3-b]pyridine-3-carbonyl]-phenyl}-amide]
≥ 5.00: [10] | [2] | [3] | [5] | [6] | [11]

CCCS(=O)(=O)Nc1ccc(F)c(C(=O)c2c[nH]c3ncc(-c4c(C)nn(C)c4C)cc23)c1F [P-2158, Propane-1-sulfonic acid {2,4-difluoro-3-[5-(1,3,5-trimethyl-1H-pyrazol-4-yl)-1H-pyrrolo[2,3-b]pyridine-3-carbonyl]-phenyl}-amide]
≥ 5.00: [10] | [2] | [3] | [5] | [6] | [11]

CCCS(=O)(=O)Nc1ccc(F)c(C(=O)c2c[nH]c3ncc(-c4ccc(F)c(OC)c4)cc23)c1F [P-2159, Propane-1-sulfonic acid {2,4-difluoro-3-[5-(4-fluoro-3-methoxy-phenyl)-1H-pyrrolo[2,3-b]pyridine-3-carbonyl]-phenyl}-amide]
≥ 5.00: [10] | [2] | [3] | [5] | [6] | [11]

CCCS(=O)(=O)Nc1ccc(F)c(C(=O)c2c[nH]c3ncc(-c4ccc(F)c(C(F)(F)F)c4)cc23)c1F [P-2160, Propane-1-sulfonic acid {2,4-difluoro-3-[5-(4-fluoro-3-trifluoromethyl-phenyl)-1H-pyrrolo[2,3-b]pyridine-3-carbonyl]-phenyl}-amide]
≥ 5.00: [10] | [3] | [5]

CCCS(=O)(=O)Nc1ccc(F)c(C(=O)c2c[nH]c3ncc(CCCN4CCOCC4)cc23)c1F [P-2247, Propane-1-sulfonic acid {2,4-difluoro-3-[5-(3-morpholin-4-yl-propyl)-1H-pyrrolo[2,3-b]pyridine-3-carbonyl]-phenyl}-amide]
not listed: [2] | [6] | [10] | [11]
≥ 5.00: all other assays above

Cc1cnc2[nH]cc(C(=O)c3c(F)ccc(NS(=O)(=O)C(C)C)c3F)c2c1 [P-2278, Propane-2-sulfonic acid [2,4-difluoro-3-(5-methyl-1H-pyrrolo[2,3-b]pyridine-3-carbonyl)-phenyl]-amide]
not listed: [2] | [6] | [10] | [11]
≥ 5.00: all other assays above

N#Cc1cnc2[nH]cc(C(=O)c3c(F)ccc(NS(=O)(=O)C4CCC4)c3F)c2c1 [P-2353, Cyclobutanesulfonic acid [3-(5-cyano-1H-pyrrolo[2,3-b]pyridine-3-carbonyl)-2,4-difluoro-phenyl]-amide]
not listed: [2] | [10] | [11]
≥ 5.00: all other assays above

O=C(c1c(F)ccc(NS(=O)(=O)C2CCC2)c1F)c1c[nH]c2ncc(Cl)cc12 [P-2354, Cyclobutanesulfonic acid [3-(5-chloro-1H-pyrrolo[2,3-b]pyridine-3-carbonyl)-2,4-difluoro-phenyl]-amide]
not listed: [10] | [11]
≥ 5.00: all other assays above

CCS(=O)(=O)Nc1cccc(C(=O)c2c[nH]c3ncc(C#N)cc23)c1F [P-2410, Ethanesulfonic acid [3-(5-cyano-1H-pyrrolo[2,3-b]pyridine-3-carbonyl)-2-fluoro-phenyl]-amide]
≥ 5.00: [10] | [3] | [4]

CCCS(=O)(=O)Nc1ccc(F)c(C(=O)c2c[nH]c3ncc(-c4cnn(C)c4)cc23)c1Cl [P-2429, Propane-1-sulfonic acid {2-chloro-4-fluoro-3-[5-(1-methyl-1H-pyrazol-4-yl)-1H-pyrrolo[2,3-b]pyridine-3-carbonyl]-phenyl}-amide]
≥ 5.00: [10] | [2] | [3] | [11]

Cn1cc(-c2cnc3[nH]cc(C(=O)c4cc(NS(=O)(=O)C5CC5)ccc4F)c3c2)cn1 [P-2433, Cyclopropanesulfonic acid {4-fluoro-3-[5-(1-methyl-1H-pyrazol-4-yl)-1H-pyrrolo[2,3-b]pyridine-3-carbonyl]-phenyl}-amide]
≥ 5.00: [10] | [2] | [3] | [5] | [6] | [11]

CCCS(=O)(=O)Nc1cccc(C(=O)c2c[nH]c3ncc(Cl)cc23)c1 [P-2449, Propane-1-sulfonic acid [3-(5-chloro-1H-pyrrolo[2,3-b]pyridine-3-carbonyl)-phenyl]-amide]
≥ 5.00: [10] | [3] | [5] | [6] | [11]

Cn1cc(-c2cnc3[nH]cc(C(=O)c4cccc(NS(=O)(=O)C5CC5)c4)c3c2)cn1 [P-2456, Cyclopropanesulfonic acid {3-[5-(1-methyl-1H-pyrazol-4-yl)-1H-pyrrolo[2,3-b]pyridine-3-carbonyl]-phenyl}-amide]
≥ 5.00: [10] | [3] | [5] | [6] | [11]

CN(C)S(=O)(=O)Nc1ccc(F)c(C(=O)c2c[nH]c3ncccc23)c1 [P-2469, N,N-dimethylamino-sulfonic acid [4-fluoro-3-(1H-pyrrolo[2,3-b]pyridine-3-carbonyl)-phenyl]-amide]
≥ 5.00: [10] | [5] | [11]
